# Measurements reported in patent US20060286608A1, “Method for screening transglutaminase 2 inhibitor or activator” (priority 2005, published 2006).
# How the values were obtained:
# TGase 2 [1] = test: TGase activity assay in LPS-activated BV-2 microglia; format: cell-based, murine; conditions: BV-2 microglia, after 24 hours of LPS treatment (100 μg/ml)
# Experimental: (§1) The BV-2 cells were grown and maintained in DMEM (Dulvecco's modified Eagle's medium) (Invitrogen) supplemented with 10% FCS (fetal calf serum) and penicillin/streptomycin at 37° C. in a humidified incubator under 5% CO2. To activate BV-2, the cells were treated with LPS (100 μg/ml; Sigma) for 24 hours. After LPS treatment for 24 hours with or without inducible nitric-oxide synthase(iNOS) inhibitor, 0, 50, and 100 μM N^G-monomethyl-L-arginine(L-NMMA) (Sigma), proteins were extracted with radioimmunoprecipitation assay buffer (1× phosphate-buffered saline (PBS), 1% Nonidet P-40, 0.5% sodium deoxycholate and 0.1% SDS) containing protease inhibitors from BV-2 harvest, followed by analysis for TGase 2 activity.
# Enzymatic activity was determined using a modified TGase assay method for measuring the incorporation of [1,4-^14C] putrescine into succinylated casein.
# TGase 2 [2] = test: Immunohistochemical staining of TGase 2 in rat brain after LPS injection; format: in vivo; conditions: rats killed 1 hour after peritoneal injection of 2.5 mg/kg LPS, compared with saline alone
# Experimental: Male Sprague-Dawley rats (Samtako, Osan, Korea) weighing 190-220 g were used as experimental models for intraperitoneal LPS injection as described previously. All experimental procedures were approved by the Seoul National University Care of Experimental Animals Committee. A solution of LPS (2.5 mg/kg) in 0.9% saline or 0.9% sterile saline was intraperitoneally injected into rats. To determine the effect of TGase inhibitors, rats were intraperitoneally injected with an R2 peptide (25 μM), an E2 peptide (25 μM, and dexamethasome (1 mg/kg) at 30 min before and at the time of LPS injection. Dexamethasome injection was used as a positive control.
# After 1 hour of intraperitoneal injection with LPS or saline, rats were anesthetized with 1% ketamine (30 mg/kg) and xylazine hydrochloride (4 mg/kg). Brains were perfused through the heart with saline containing 0.5% sodium nitrite and 10 units/ml heparin, followed by perfusion with 4% paraformaldehyde in PBS (0.1 M, pH 7.2). Brains were removed, rinsed with PBS, and cryoprotected in sucrose. Sections were prepared on a sliding microtome (40 μm) at the level of the subfornical organ. A monoclonal antibody (TG-100; NeoMarkers) to TGase 2 was used to subject TGase 2 to immunohistochemical staining. Brain sections were blocked with 1% BSA in PBS and incubated overnight with a primary antibody solution (1:200 dilution). […]
# TGase 2 [3] = conditions: microglia after 24 hours of exposure to LPS; previous study (Park et al. 2004); cited from earlier work
# BV-2 microglia = test: Nitric oxide measurement (Griess reaction) in LPS-activated BV-2 microglia; format: cell-based, murine; conditions: BV-2 microglia, after 24 hours of LPS treatment (100 μg/ml)
# Experimental: as §1
# Accumulated nitric oxide was measured in the cell supernatant after LPS treatment for 24 hours by Griess reaction. A 200 μl aliquot of the cell supernatant in each well of a 96-well microtiter plate was mixed with 100 μl of the Griess reagent [1% sulfanilamide (Fluka), 0.1% naphthylethylenediamine dihydrochloride (Fluka), 2.5% H3PO4], and the absorbance was read at 540 nm using a plate reader.
# iNOS = test: Semi-quantitative RT-PCR of mouse iNOS in BV-2 cells; format: cell-based; conditions: BV-2 cells treated with LPS
# Experimental: (§2) Semi-quantitative RT-PCR was performed using competitive mimic templates as internal controls. To prepare total RNA for RT-PCR, the cells were lysed with a TRIzol reagent. Samples of the total RNA were reverse-transcribed at 42° C. using the first strand synthesis kit (Promega) with avian myeloblastosis virus reverse transcriptase, and PCR was performed for the transcripts of iNOS and TGase 2 using corresponding specific primer sets. For each PCR, 1.5 mM MgCl2, 200 μM dNTP, 0.2 μM of each primer, 0.5 unit Taq polymerase, and a predetermined amount of a template were contained in a volume of 20 μl. The mimic templates of TGase 2 and iNOS were constructed by PCR. The mimics of mouse TGase 2 and mouse iNOS were prepared from 2014-2338 bp and 1451-2043 bp, respectively. RT-PCR products thus obtained were 526 bp for target TGase 2, 345 bp for mimic TGase 2, 593 bp for target iNOS, and 345 bp for mimic iNOS. For the RT-PCR, a primer set of SEQ. ID. NOS. 1 and 2, and a primer set of SEQ. ID. NOS.
# TGase 2 [4] = test: Semi-quantitative RT-PCR of mouse TGase 2 in BV-2 cells; format: cell-based; conditions: BV-2 cells treated with LPS
# Experimental: as §2
substance,measurement,setting,value
lipopolysaccharide [LPS],"TGase 2 activity, increase",TGase 2 [1],5 fold
same,TGase 2 expression in brains,TGase 2 [2],increased
same,"TGase activity, increase",TGase 2 [3],about 5 fold
same,"release of NO, increase",BV-2 microglia,10 fold
same,"iNOS by RT-PCR, increase",iNOS,10 fold
same,"TGase 2 by RT-PCR, increase",TGase 2 [4],3 fold
